Like-named read-outs stand apart in the source and are kept apart here.
Key:
[1] = assay type: physicochemical; conditions: for Free-throw 3 times Accuracy: 3 cycles freezing at about −20°C and thawing at room temperature; for 24 h stability Accuracy: autosampler, room temperature
Experimental: The standard stock solutions of gallic acid, bergenin, epicatechin, epicatechin gallate, isoquercitrin, and quercetin-3-rhamnoside were prepared by dissolving each separately in methanol to achieve a concentration of 1 mg mL^−1 for use as the stock solution. The three ISs including ferulic acid, puerarin, and warfarin were prepared using the same procedure as mentioned above with the concentration being 1 μg mL^−1. Calibration standard solutions were prepared by spiking the different concentrations of the standard mixture working solutions into plasma to achieve the concentration range of 2–500 ng mL^−1 for gallic acid; 2–500 ng mL^−1 for bergenin; 4–1000 ng mL^−1 for epicatechin; 2–500 ng mL^−1 for epicatechin gallate; 1–250 ng mL^−1 for isoquercitrin; and 0.4–100 ng mL^−1 for quercetin-3-rhamnoside. The QC samples were prepared by spiking 10 μL of the standard stock solutions into 100 μL of blank plasma to achieve LLOQ, low, medium and high concentrations of 2, 6, 20, and 200 ng mL^−1 for gallic acid; 2, 6, 20, and 200 ng mL^−1 for bergenin; 4, 12, 40, and 400 ng mL^−1 for epicatechin; 2, 6, 20, and 200 ng mL^−1 for epicatechin gallate; 1, 3, 10, and 100 ng mL^−1 for isoquercitrin; and 0.4, 1.2, 4, and 40 ng mL^−1 for quercetin-3-rhamnoside.
The stability for 6 analysis compounds including 24 h stability (keeping the sample in autosampler conditions of room temperature for 24 h), three freeze/thaw cycles (subjected to 3 cycles of freezing at about −20°C and thawing at room temperature), and a long-term stability (stored at about −80°C for 4 weeks) of analytes in plasma was performed by analyzing QC samples at four different concentrations.

[2] = Pharmacokinetic study in rats after oral administration of A. japonica extract (LC-MS/MS of plasma); assay type: in vivo; conditions: male, Sprague-Dawley; for Tmax: n = 10; for MRT: read-out: MRT(0–t24 h); for MRT inf: read-out: MRT(0–∞); for Cmax: read-out: peak plasma concentration (Cmax)
Experimental: The LC-MS/MS system consisted of an Agilent 1200 system coupled with a binary pump (G1312A), an autosampler (G13678), a vacuum degasser (G1322A), and an API 3200 triple quadrupole mass spectrometer with an ESI source. […] The flow rate was set at 300 μL min^−1 and the inject volume was 10 μL.
The analytes were determined in negative mode and quantified by multiple-reaction monitoring (MRM) mode. The source parameters were as follows: curtain gas, 25 psi; collision gas, 12 psi; ion spray voltage, −4500 V; temperature, 500°C; ion source gas 1, 45 psi; and ion source gas 2, 55 psi, respectively. Data acquisition was operated by Analyst 1.4.2 software (AB Sciex).
100 μL of plasma sample, 10 μL of the IS solutions, and 10 μL of 30% formic acid were added to the tube. Samples were vortex-mixed for 1 min, and 400 μL of acetonitrile was then used in precipitating the protein, after which they were centrifuged for 10 min at 14,000 rpm. The supernatant was transferred into another centrifuge tube and evaporated using nitrogen gas to dryness. The dried residue was reconstituted using 100 μL of methanol. The sample was further shaken and ultrasonicated for 2 min to ensure that it was well dissolved. It was subsequently centrifuged at 14,000 rpm for 10 min, and 10 μL aliquot of the solution was injected into the LC-MS/MS system for analysis.
Ten male Sprague-Dawley rats (270–280 g) were kept at the animal center of Tianjin University of Traditional Chinese Medicine (Tianjin, China) under environmentally controlled conditions. […] According to the clinical dose used in human, the rat dose of A. japonicae extracts used was 0.93 g kg^−1. […] After blood sample collection into the heparinized 1.5 mL polythene tubes and centrifugation at 6000 rpm for 10 min, the plasma was transferred into clean tubes and stored in a freezer at −20°C until analysis. The pharmacokinetic parameters were determined using pharmacokinetics program (DAS1.0 Medical College of Wannan, China) and performing a one compartmental analysis.

[3] = rat plasma, LLOQ QC concentration, n = 6
[4] = rat plasma, high QC concentration, n = 6
[5] = rat plasma, low QC concentration, n = 6
[6] = rat plasma, medium QC concentration, n = 6
[7] = stored at about −80°C for 4 weeks, rat plasma, LLOQ QC concentration, n = 6
[8] = stored at about −80°C for 4 weeks, rat plasma, high QC concentration, n = 6
[9] = stored at about −80°C for 4 weeks, rat plasma, medium QC concentration, n = 6
[10] = rat, plasma, po, 0.93 g/kg, oral A. japonica extract 0.93 g kg^−1, one compartment model, read-out: AUC(0–24 h)
[11] = rat, plasma, po, 0.93 g/kg, oral A. japonica extract 0.93 g kg^−1, read-out: area under the curve (AUC0–24 h)
[12] = rat plasma, oral A. japonica extract 0.93 g kg^−1, one compartment model
[13] = rat plasma, oral A. japonica extract 0.93 g kg^−1
[14] = in vivo, rat plasma, oral A. japonica extract 0.93 g kg^−1, one compartment model

Structure (SMILES)	Free-throw 3 times Accuracy [1, 3] [%]	Free-throw 3 times Accuracy [1, 4] [%]	Free-throw 3 times Accuracy [1, 5] [%]	Free-throw 3 times Accuracy [1, 6] [%]	24 h stability Accuracy ([1]; LLOQ QC concentration, n = 6) [%]	24 h stability Accuracy ([1]; high QC concentration, n = 6) [%]	24 h stability Accuracy ([1]; low QC concentration, n = 6) [%]	24 h stability Accuracy ([1]; medium QC concentration, n = 6) [%]	Long stability (1 month) Accuracy [1, 7] [%]	Long stability (1 month) Accuracy [1, 8] [%]	Long stability (1 month) Accuracy [1, 9] [%]	AUC(0-t) [2, 10] [ng·h/mL]	AUC(0-t) [2, 11] [ng·h/mL]	AUC(0-inf) [2, 12] [ng·h/mL]	half-life [2, 12] [h]	Tmax [2, 12] [h]	MRT [2, 12] [h]	MRT inf [2, 12] [h]	Cmax [2, 13] [ng/mL]	further results
O=C(O)c1cc(O)c(O)c(O)c1 [Gallic acid, gallic acid]	92.5	101	114	94.0	116	103	111	85.8	95.6	92.7	98.4	194 ± 44	194 ± 44	200 ± 43.9	3.21 ± 4.56	1.4 ± 1.13	4.5 ± 1.15	5.33 ± 1.61	35.5 ± 10.2	Long stability (1 month) Accuracy ([1]; rat, 4 weeks): 101%
COc1c(O)cc2c(c1O)[C@@H]1O[C@H](CO)[C@@H](O)[C@H](O)[C@H]1OC2=O [Bergeninum, bergenin]	106	87.3	104	94.0								1740 ± 666	1740 ± 666	1840 ± 769	3.87 ± 1.62	0.86 ± 0.52	6.04 ± 1.05	7.26 ± 2.17	288 ± 107	
O=c1c(O[C@@H]2O[C@H](CO)[C@@H](O)[C@H](O)[C@H]2O)c(-c2ccc(O)c(O)c2)oc2cc(O)cc(O)c12 [Isoquercitrin, isoquercitrin]	105	91.0	103	96.9																
O=C(O[C@@H]1Cc2c(O)cc(O)cc2O[C@@H]1c1ccc(O)c(O)c1)c1cc(O)c(O)c(O)c1 [Epicatechin gallate, epicatechin gallate]	109	88.0	98.4	91.4																
C[C@@H]1O[C@@H](Oc2c(-c3ccc(O)c(O)c3)oc3cc(O)cc(O)c3c2=O)[C@H](O)[C@H](O)[C@H]1O [Quercetin-3-rhamnoside, quercetin-3-rhamnoside]	115	85.0	90.4	93.3	93.7	87.3	96.3	93.3	114	85.0	90.6									Long stability (1 month) Accuracy ([1]; stored at about −80°C for 4 weeks, rat plasma, low QC concentration, n = 6): 92.2%; AUC(0-inf) [2, 14]: 6.95 ± 20.7 ng·h/mL; half-life [2, 14]: 2.59 ± 2.8 h; Tmax [2, 14]: 0.5 ± 0.6 h; MRT [2, 14]: 5.08 ± 6.36 h; MRT inf [2, 14]: 7.09 ± 19.6 h; AUC(0-t) ([2]; in vivo, rat plasma, oral A. japonica extract 0.93 g kg^−1, read-out: area under the curve (AUC0–24 h)): 6.44 ± 12 ng·h/mL; Cmax ([2]; in vivo, rat plasma, oral A. japonica extract 0.93 g kg^−1): 7.08 ± 8.28 ng/mL
Oc1cc(O)c2c(c1)O[C@H](c1ccc(O)c(O)c1)[C@H](O)C2 [Epicatechin, epicatechin]	105	99.4	111	111																
